Test results published in paper PMC10280016 (Frontiers in Molecular Biosciences, 2023).
Entries after “also recorded” stand apart in the source; their conditions may differ. Like-named read-outs stand apart in the source and are kept apart here.

Assays:
[1] = in vitro; settings: human, Caco-2
[2] = tested on: SARS-CoV-2 strain G614; assay: microbe, parasite or virus in culture; type: cell-based; settings: for IC50: Severe acute respiratory syndrome coronavirus 2, 24 h, read-out: Anti-SARS-CoV-2 activity, spike immunostaining assay (IC50 ± SD)
[3] = tested on: SARS-CoV-2
[4] = tested on: SARS-CoV-2; settings: Vero E6 cells; ref ter Ellen et al., 2021; cited from earlier work
[5] = tested on: SARS-CoV-2; settings: primary human bronchial epithelial cells, air-liquid interface culture; ref ter Ellen et al., 2021; cited from earlier work
[6] = target: T1, SARS-CoV-2 main protease (Mpro) (Severe acute respiratory syndrome coronavirus 2, UniProt P0DTD1); type: biochemical
T1 construct: made in house

[7] = tested on: SARS-CoV-2 strain G614; settings: false positive in the assay; ref Bojkova et al., 2023; cited from earlier work
[8] = tested on: SARS-CoV-2; settings: ref Bojkova et al., 2023; cited from earlier work
[9] = tested on: SARS-CoV-2 strain G614; type: cell-based; settings: at 10 µM
[10] = tested on: SARS-CoV; settings: cited from earlier work
[11] = tested on: SARS-CoV main protease (Mpro, 3CL protease); settings: ref Wen et al., 2007; cited from earlier work

SMILES | CC50 [1] [µM] | Selectivity index (CC50/IC50) [2] | IC50 [2] [µM] | also measured
COc1ccc2c(c1)OC1c3ccc(O)cc3OCC21 (single isomer, unassigned; (-)) [Compound 2, (−)-medicarpin] | > 100 | >3.0 | 33.4 ± 9.7 | 
Oc1ccc2c(c1)OCC1c3cc4c(cc3OC21)OCO4 (single isomer, unassigned; (-)) [Compound 3, (−)-maackiain] | > 100 |  | > 100 | 
COc1cc2c(cc1O)C1COc3cc(O)ccc3C1O2 (single isomer, unassigned; (-)) [Compound 4, (−)-3,8-dihydroxy-9-methoxypterocarpan] | > 100 |  | > 100 | MN Analysis: Activity classification (predicted anti-SARS-CoV-2 activity of the compound) [3]: inactive
COc1cc(/C=C/c2ccc(O)cc2)cc(OC)c1 [Compound 1, (E)-pterostilbene] | > 100 | >2.9 | 34.7 ± 1.6 | Anti-SARS-CoV-2 activity [4]: has shown anti-SARS-CoV-2 activity; Anti-SARS-CoV-2 activity [5]: has shown anti-SARS-CoV-2 activity
COc1ccc2c(c1)O[C@H]1c3ccc(OC)cc3OC[C@@H]21 [Compound 5, (−)-homopterocarpin] | > 100 | >5.8 | 17.2 ± 1.9 | MN Analysis: Activity classification (predicted anti-SARS-CoV-2 activity of the compound) [3]: active; SARS-CoV-2 Mpro inhibition [6]: did not show any inhibitory activity; also recorded: no inhibitory activity
COc1ccc2c(c1)OC[C@H]1c3cc4c(cc3O[C@@H]21)OCO4 [Compound 6, (−)-pterocarpin] | > 100 |  | > 100 | MN Analysis: Activity classification (predicted anti-SARS-CoV-2 activity of the compound) [3]: active
COc1ccc2c(c1)OC[C@H]1c3cc(O)c(OC)cc3O[C@@H]21 [Compound 7, (−)-8-hydroxyhomopterocarpan] | > 100 |  | > 100 | 
COc1ccc(CCCc2ccc(O)c(OC)c2)c(OC)c1 [Compound 9, pterosantalin D] | > 100 |  | > 100 | 
COc1cc(O)c2c(=O)c(-c3ccc(O)cc3)coc2c1 [Compound 11, 7-O-methylgenistein] | > 100 | >2.6 | 37.9 ± 5.4 | 
COc1cc(O)c2c(=O)c(-c3ccc(O)c(OC)c3)coc2c1 [Compound 12, 7,3′-di-O-methylorobol] | > 100 |  | > 100 | 
COc1cc(O)c2c(=O)c(-c3ccc(O)c(O)c3)coc2c1 [Compound 13, santal] | > 100 | >1.4 | 74.2 ± 15.4 | 
COc1ccc(-c2coc3cc(O)cc(O)c3c2=O)c(OC)c1O [Compound 14, khrinone C] | > 100 |  | > 100 | MN Analysis: Activity classification (predicted anti-SARS-CoV-2 activity of the compound) [3]: inactive
COc1ccc2c(c1)oc(=O)c1c3ccc(OC)cc3oc21 [Compound 16, 3,9-di-O-methylcoumestrol] | > 100 |  | > 100 | 
COc1ccc([C@@H]2COc3cc(OC)ccc3C2)c(O)c1 [Compound 22, (−)-isosativan] | > 100 | >2.5 | 40.8 ± 1.8 | 
COc1ccc([C@@H]2COc3cc(OC)ccc3C2=O)cc1 [Compound 23, (+)-7,4′-di-O-methyldihydrodaidzein] | > 100 | >1.9 | 53.3 ± 6.2 | 
C[C@H](NC(=O)C(=O)Nc1ccccc1C(C)(C)C)C(=O)N[C@@H](CC(=O)O)C(=O)COc1c(F)c(F)cc(F)c1F [emricasan] |  |  |  | Effect on SARS-CoV-2-induced caspase 3/7 activity [7]: supressed SARS-CoV-2-induced caspase 3/7 activity; Effect on SARS-CoV-2 replication [8]: did not affect SARS-CoV-2 replication
CCC(CC)COC(=O)[C@H](C)N[P@](=O)(OC[C@H]1O[C@@](C#N)(c2ccc3c(N)ncnn23)[C@H](O)[C@@H]1O)Oc1ccccc1 [remdesivir, reference compound] | > 10 | >58.8 | 0.17 ± 0.01 | Anti-SARS-CoV-2 activity, Caspase assay [% inhibition] [9]: 93.4 (at 10 µM) % inhibition; Selectivity index CC50/IC50 [2]: >58.8
O=C1OC[C@H](Cc2ccc3c(c2)OCO3)/C1=C\c1ccc2c(c1)OCO2 [savinin] |  |  |  | Anti-SARS-CoV activity EC50 [10]: low micromolar range; Inhibition of SARS-CoV main protease, mode [11]: competitive inhibition
